# Target: T1, human full-length MKNK1 (Homo sapiens, UniProt Q9BUB5, T385D)
# T1 construct: GST (N); purchased Carna Biosciences 02-145; host or cells: insect cells (baculovirus expression system)
# Assay: MKNK1 kinase high ATP assay (TR-FRET)
# Format: biochemical
# Details: TR-FRET, 2 mM ATP (high ATP), 15 min preincubation with enzyme, 30 min reaction at 22° C.; read-out: MKNK1 IC50
# In short: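 Full-length human MKNK1 (T385D) preincubated 15 min at 22 °C with compound in HEPES pH 7.5/MgCl2/DTT buffer; reaction with 2 mM ATP (final) and 0.06 μM biotinylated peptide (final), 30 min at 22 °C.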
# T1 sequence (Q9BUB5 1-424 isoform Q9BUB5-2 T344D): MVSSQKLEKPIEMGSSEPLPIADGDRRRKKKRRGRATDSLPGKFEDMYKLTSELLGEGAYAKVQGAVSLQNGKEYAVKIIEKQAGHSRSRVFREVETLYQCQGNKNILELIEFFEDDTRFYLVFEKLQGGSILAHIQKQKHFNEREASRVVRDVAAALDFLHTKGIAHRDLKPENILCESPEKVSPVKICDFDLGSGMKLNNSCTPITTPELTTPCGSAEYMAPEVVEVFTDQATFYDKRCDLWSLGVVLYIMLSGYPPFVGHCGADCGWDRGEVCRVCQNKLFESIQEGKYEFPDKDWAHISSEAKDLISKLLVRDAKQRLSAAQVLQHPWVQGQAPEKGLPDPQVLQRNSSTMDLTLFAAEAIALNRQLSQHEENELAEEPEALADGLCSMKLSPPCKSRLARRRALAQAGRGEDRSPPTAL
row,SMILES,IC50 [nM]
1,"C[C@@H]1COCCN1C(=O)[C@H]1CCc2c(sc3ncnc(Nc4cc(Cl)c5n(c4=O)C4(CCCCC4)NC5=O)c23)C1 [Example 79, 8′-Chloro-6′-{[(7S)-7-{[(3R)-3-methylmorpholin-4-yl]carbonyl}-5,6,7,8-tetrahydro[1]benzothieno[2,3-d]pyrimidin-4-yl]amino}-2′H-spiro[cyclohexane-1,3′-imidazo[1,5-a]pyridine]-1′,5′-dione]",0.3
2,"O=C1NC2(CCCCC2)n2c1c(Cl)cc(Nc1ncnc3sc4c(c13)CC[C@H](C(=O)N1C[C@H]3C[C@@H]1CO3)C4)c2=O [Example 81, 8′-Chloro-6′-({(7S)-7-[(1R,4R)-2-oxa-5-azabicyclo[2.2.1]hept-5-ylcarbonyl]-5,6,7,8-tetrahydro[1]benzothieno[2,3-d]pyrimidin-4-yl}amino)-2′H-spiro[cyclohexane-1,3′-imidazo[1,5-a]pyridine]-1′,5′-dione]",0.3
3,"Cc1cc(Nc2ncnc3sc4c(c23)CC[C@H](C(=O)N2CC(C#N)C2)C4)c(=O)n2c1C(=O)N[C@]21CC[C@@](O)(C(F)(F)F)CC1 [Example 82, 1-{[(7S)-4-{[(cis)-4-Hydroxy-8′-methyl-1′,5′-dioxo-4-(trifluoromethyl)-1′,5′-dihydro-2′H-spiro[cyclohexane-1,3′-imidazo[1,5-a]pyridin]-6′-yl]amino}-5,6,7,8-tetrahydro[1]benzothieno[2,3-d]pyrimidin-7-yl]carbonyl}azetidine-3-carbonitrile]",1.5
4,"Cc1cc(Nc2ncnc3sc4c(c23)CC[C@H](C(=O)N2CCN(C)[C@H](C)C2)C4)c(=O)n2c1C(=O)N[C@]21CC[C@@](O)(C(F)(F)F)CC1 [Example 83, (cis)-6′-{[(7S)-7-{[(3R)-3,4-Dimethylpiperazin-1-yl]carbonyl}-5,6,7,8-tetrahydro[1]benzothieno[2,3-d]pyrimidin-4-yl]amino}-4-hydroxy-8′-methyl-4-(trifluoromethyl)-2′H-spiro[cyclohexane-1,3′-imidazo[1,5-a]pyridine]-1′,5′-dione]",1.5
5,"O=C1NC2(CCCC2)n2c1c(Cl)cc(Nc1ncnc3sc4c(c13)CC[C@H](C(=O)O)C4)c2=O [Example 84, (7S)-4-[(8′-Chloro-1′,5′-dioxo-1′,5′-dihydro-2′H-spiro[cyclopentane-1,3′-imidazo[1,5-a]pyridin]-6′-yl)amino]-5,6,7,8-tetrahydro[1]benzothieno[2,3-d]pyrimidine-7-carboxylic acid]",1
6,"O=C1NC2(CCCC2)n2c1c(Cl)cc(Nc1ncnc3sc4c(c13)CC[C@H](C(=O)N1CCC1)C4)c2=O [Example 87, 6′-{[(7S)-7-(Azetidine-1-carbonyl)-5,6,7,8-tetrahydro[1]benzothieno[2,3-d]pyrimidin-4-yl]amino}-8′-chloro-2′H-spiro[cyclopentane-1,3′-imidazo[1,5-a]pyridine]-1′,5′-dione]",0.2
7,"C[C@@H]1COCCN1C(=O)[C@H]1CCc2c(sc3ncnc(Nc4cc(Cl)c5n(c4=O)C4(CCCC4)NC5=O)c23)C1 [Example 90, 8′-Chloro-6′-({(7S)-7-[(3R)-3-methylmorpholine-4-carbonyl]-5,6,7,8-tetrahydro[1]benzothieno[2,3-d]pyrimidin-4-yl}amino)-2′H-spiro[cyclopentane-1,3′-imidazo[1,5-a]pyridine]-1′,5′-dione]",0.3
8,"O=C1NC2(CCCC2)n2c1c(Cl)cc(Nc1ncnc3sc4c(c13)CC[C@H](C(=O)N1C[C@H]3C[C@@H]1CO3)C4)c2=O [Example 92, 8′-Chloro-6′-({(7S)-7-[(1R,4R)-2-oxa-5-azabicyclo[2.2.1]heptane-5-carbonyl]-5,6,7,8-tetrahydro[1]benzothieno[2,3-d]pyrimidin-4-yl}amino)-2′H-spiro[cyclopentane-1,3′-imidazo[1,5-a]pyridine]-1′,5′-dione]",1
9,"O=C1NC2(CCC2)n2c1c(Cl)cc(Nc1ncnc3sc4c(c13)CC[C@H](C(=O)O)C4)c2=O [Example 93, (7S)-4-[(8′-Chloro-1′,5′-dioxo-1′,5′-dihydro-2′H-spiro[cyclobutane-1,3′-imidazo[1,5-a]pyridin]-6′-yl)amino]-5,6,7,8-tetrahydro[1]benzothieno[2,3-d]pyrimidine-7-carboxylic acid]",1.3
10,"NC(=O)[C@H]1CCc2c(sc3ncnc(Nc4cc(Cl)c5n(c4=O)C4(CCC4)NC5=O)c23)C1 [Example 94, (7S)-4-[(8′-Chloro-1′,5′-dioxo-1′,5′-dihydro-2′H-spiro[cyclobutane-1,3′-imidazo[1,5-a]pyridin]-6′-yl)amino]-5,6,7,8-tetrahydro[1]benzothieno[2,3-d]pyrimidine-7-carboxamide]",0.2
11,"CN(C)C(=O)[C@H]1CCc2c(sc3ncnc(Nc4cc(Cl)c5n(c4=O)C4(CCC4)NC5=O)c23)C1 [Example 95, (7S)-4-[(8′-Chloro-1′,5′-dioxo-1′,5′-dihydro-2′H-spiro[cyclobutane-1,3′-imidazo[1,5-a]pyridin]-6′-yl)amino]-N,N-dimethyl-5,6,7,8-tetrahydro[1]benzothieno[2,3-d]pyrimidine-7-carboxamide]",1.9

# Next, values leading:
row,IC50 [nM],SMILES
1,0.2,"C[C@@H]1CN(C(=O)[C@H]2CCc3c(sc4ncnc(Nc5cc(Cl)c6n(c5=O)C5(CCCCC5)NC6=O)c34)C2)CCN1C [Example 80, 8′-Chloro-6′-{[(7S)-7-{[(3R)-3,4-dimethylpiperazin-1-yl]carbonyl}-5,6,7,8-tetrahydro[1]benzothieno[2,3-d]pyrimidin-4-yl]amino}-2′H-spiro[cyclohexane-1,3′-imidazo[1,5-a]pyridine]-1′,5′-dione]"
2,0.2,"NC(=O)[C@H]1CCc2c(sc3ncnc(Nc4cc(Cl)c5n(c4=O)C4(CCCC4)NC5=O)c23)C1 [Example 85, (7S)-4-[(8′-Chloro-1′,5′-dioxo-1′,5′-dihydro-2′H-spiro[cyclopentane-1,3′-imidazo[1,5-a]pyridin]-6′-yl)amino]-5,6,7,8-tetrahydro[1]benzothieno[2,3-d]pyrimidine-7-carboxamide]"
3,0.1,"CN(C)C(=O)[C@H]1CCc2c(sc3ncnc(Nc4cc(Cl)c5n(c4=O)C4(CCCC4)NC5=O)c23)C1 [Example 86, (7S)-4-[(8′-Chloro-1′,5′-dioxo-1′,5′-dihydro-2′H-spiro[cyclopentane-1,3′-imidazo[1,5-a]pyridin]-6′-yl)amino]-N,N-dimethyl-5,6,7,8-tetrahydro[1]benzothieno[2,3-d]pyrimidine-7-carboxamide]"
4,< 0.1,"N#CC1CN(C(=O)[C@H]2CCc3c(sc4ncnc(Nc5cc(Cl)c6n(c5=O)C5(CCCC5)NC6=O)c34)C2)C1 [Example 88, 1-{(7S)-4-[(8′-Chloro-1′,5′-dioxo-1′,5′-dihydro-2′H-spiro[cyclopentane-1,3′-imidazo[1,5-a]pyridin]-6′-yl)amino]-5,6,7,8-tetrahydro[1]benzothieno[2,3-d]pyrimidine-7-carbonyl}azetidine-3-carbonitrile]"
5,< 0.1,"CN(C)[C@H]1CCN(C(=O)[C@H]2CCc3c(sc4ncnc(Nc5cc(Cl)c6n(c5=O)C5(CCCC5)NC6=O)c34)C2)C1 [Example 89, 8′-Chloro-6′-({(7S)-7-[(3S)-3-(dimethylamino)pyrrolidine-1-carbonyl]-5,6,7,8-tetrahydro[1]benzothieno[2,3-d]pyrimidin-4-yl}amino)-2′H-spiro[cyclopentane-1,3′-imidazo[1,5-a]pyridine]-1′,5′-dione]"
6,< 0.1,"C[C@@H]1CN(C(=O)[C@H]2CCc3c(sc4ncnc(Nc5cc(Cl)c6n(c5=O)C5(CCCC5)NC6=O)c34)C2)CCN1C [Example 91, 8′-Chloro-6′-({(7S)-7-[(3R)-3,4-dimethylpiperazine-1-carbonyl]-5,6,7,8-tetrahydro[1]benzothieno[2,3-d]pyrimidin-4-yl}amino)-2′H-spiro[cyclopentane-1,3′-imidazo[1,5-a]pyridine]-1′,5′-dione]"
7,0.1,"O=C1NC2(CCC2)n2c1c(Cl)cc(Nc1ncnc3sc4c(c13)CC[C@H](C(=O)N1CCC1)C4)c2=O [Example 96, 6′-{[(7S)-7-(Azetidine-1-carbonyl)-5,6,7,8-tetrahydro[1]benzothieno[2,3-d]pyrimidin-4-yl]amino}-8′-chloro-2′H-spiro[cyclobutane-1,3′-imidazo[1,5-a]pyridine]-1′,5′-dione]"
8,0.1,"N#CC1CN(C(=O)[C@H]2CCc3c(sc4ncnc(Nc5cc(Cl)c6n(c5=O)C5(CCC5)NC6=O)c34)C2)C1 [Example 97, 1-{(7S)-4-[(8′-Chloro-1′,5′-dioxo-1′,5′-dihydro-2′H-spiro[cyclobutane-1,3′-imidazo[1,5-a]pyridin]-6′-yl)amino]-5,6,7,8-tetrahydro[1]benzothieno[2,3-d]pyrimidine-7-carbonyl}azetidine-3-carbonitrile]"
9,< 0.1,"CN(C)[C@H]1CCN(C(=O)[C@H]2CCc3c(sc4ncnc(Nc5cc(Cl)c6n(c5=O)C5(CCC5)NC6=O)c34)C2)C1 [Example 98, 8′-Chloro-6′-({(7S)-7-[(3S)-3-(dimethylamino)pyrrolidine-1-carbonyl]-5,6,7,8-tetrahydro[1]benzothieno[2,3-d]pyrimidin-4-yl}amino)-2′H-spiro[cyclobutane-1,3′-imidazo[1,5-a]pyridine]-1′,5′-dione]"
10,0.1,"C[C@@H]1COCCN1C(=O)[C@H]1CCc2c(sc3ncnc(Nc4cc(Cl)c5n(c4=O)C4(CCC4)NC5=O)c23)C1 [Example 99, 8′-Chloro-6′-({(7S)-7-[(3R)-3-methylmorpholine-4-carbonyl]-5,6,7,8-tetrahydro[1]benzothieno[2,3-d]pyrimidin-4-yl}amino)-2′H-spiro[cyclobutane-1,3′-imidazo[1,5-a]pyridine]-1′,5′-dione]"
11,0.1,"C[C@@H]1CN(C(=O)[C@H]2CCc3c(sc4ncnc(Nc5cc(Cl)c6n(c5=O)C5(CCC5)NC6=O)c34)C2)CCN1C [Example 100, 8′-Chloro-6′-({(7S)-7-[(3R)-3,4-dimethylpiperazine-1-carbonyl]-5,6,7,8-tetrahydro[1]benzothieno[2,3-d]pyrimidin-4-yl}amino)-2′H-spiro[cyclobutane-1,3′-imidazo[1,5-a]pyridine]-1′,5′-dione]"

# From patent US20190388425A1, “SUBSTITUTED IMIDAZOPYRIDINPYRIMIDINES” (Bayer Pharma Aktiengesellschaft, priority 2017, published 2019)
